Calls of active or inactive are those of the source. No cut-off for these calls is given here.
Assays:
[1] = system: NCI-H460; assay: Anti-tumor activity against human NCI-H460 cells assessed as cell viability incubated for 48 hrs by CCK-8 assay; assay type: functional, cell-based; settings: NCI-H460, 48 h
[2] = system: NCI-H460; assay: Inhibition of epithelial mesenchymal transition in human NCI-H460 cells assessed as decrease in N-cadherin protein expression by Western blotting analysis; assay type: functional, cell-based
[3] = system: NCI-H460; assay: Inhibition of epithelial mesenchymal transition in human NCI-H460 cells assessed as increase in E-cadherin protein expression by Western blotting analysis; assay type: functional, cell-based
[4] = system: NCI-H460; assay: Induction of apoptosis in human NCI-H460 cells assessed as apoptosis rate at 500 nM incubated for 24 hrs by annexin V-FITC/PI staining based flow cytometry analysis relative to control; assay type: functional
[5] = system: NCI-H460; assay: Upregulation of gamma-H2AX expression in human NCI-H460 cells by Western blot analysis; assay type: functional, cell-based
[6] = system: NCI-H460; assay: Antitumor activity against human NCI-H460 cells xenografted in athymic nude mouse assessed as change in tumor weight at 10 mg/kg, iv administered every 2 days and measured after 2 weeks; assay type: functional, organism-based
[7] = system: NCI-H460; assay: Antitumor activity against human NCI-H460 cells xenografted in athymic nude mouse assessed as change in tumor volume at 10 mg/kg, iv administered every 2 days and measured after 2 weeks; assay type: functional, organism-based
[8] = system: NCI-H460; assay: Antitumor activity against human NCI-H460 cells xenografted in athymic nude mouse assessed as tumor growth inhibition at 10 mg/kg, iv administered every 2 days and measured after 2 weeks; assay type: functional; settings: NCI-H460, 336 h, read-out: TGI
[9] = Toxicity in male athymic nude mouse assessed as alveolar wall hyperplasia at 10 mg/kg, iv administered every 2 days and measured after 2 weeks by H and E staining based analysis; assay type: organism-based; settings: in vivo, 336 h
[10] = system: HT-29; assay: Anti-tumor activity against human HT-29 cells assessed as cell viability incubated for 48 hrs by CCK-8 assay; assay type: functional, cell-based
[11] = system: MCF7; assay: Anti-tumor activity against human MCF7 cells assessed as cell viability incubated for 48 hrs by CCK-8 assay; assay type: functional, cell-based
[12] = system: HeLa; assay: Anti-tumor activity against human HeLa cells assessed as cell viability incubated for 48 hrs by CCK-8 assay; assay type: functional, cell-based
[13] = system: NCI-H460; assay: Inhibition of colony formation in human NCI-H460 cells assessed as reduction in colony formation rate upto 12.5 uM incubated for 14 days by crystal violet staining based analysis; assay type: functional, cell-based; settings: time 14.0 day
[14] = system: NCI-H460; assay: Anti-migratory activity against human NCI-H460 cells assessed as inhibition of cell migration at 500 nM measured for 48 hrs by wound healing assay; assay type: functional, cell-based
[15] = system: NCI-H460; assay: Inhibition of cell invasion in human NCI-H460 cells assessed as decrease in number of invading cells at 500 nM incubated for 48 hrs by transwell assay; assay type: functional, cell-based
[16] = system: NCI-H460; assay: Induction of apoptosis in human NCI-H460 cells assessed as increase in BAX level at 500 nM incubated for 24 hrs by Western blot analysis; assay type: functional, cell-based
[17] = system: NCI-H460; assay: Induction of apoptosis in human NCI-H460 cells assessed as increase in caspase-3 level at 500 nM incubated for 24 hrs by Western blot analysis; assay type: functional, cell-based
[18] = system: NCI-H460; assay: Induction of apoptosis in human NCI-H460 cells assessed as downregulation of Bcl2 expression at 500 nM incubated for 24 hrs by Western blot analysis; assay type: functional, cell-based
[19] = system: NCI-H460; assay: Induction of DNA damage in human NCI-H460 cells assessed as increase in gammaH2AX positive cells by DAPI staining based confocal laser scanning microscopic analysis; assay type: functional, cell-based
[20] = system: NCI-H460; assay: Induction of DNA damage in human NCI-H460 cells assessed as increase in gammaH2AX positive cells by immunofluorescence analysis; assay type: functional, cell-based
[21] = Hemolytic activity in BALB/c mouse Red blood cells assessed as effect on morphological structure at 10 to 100 uM incubated for 2 hrs; assay type: toxicity, cell-based; settings: erythrocyte, dose 10-100 µM
[22] = Hemolytic activity in BALB/c mouse Red blood cells assessed as hemolysis at 10 to 100 uM incubated for 2 hrs; assay type: toxicity, cell-based, Erythrocyte; settings: dose 10-100 µM, read-out: Activity
[23] = Antiproliferative activity against rat PA-III cells incubated for 24 hrs by MTT assay; assay type: functional, cell-based
[24] = system: PC-3M; assay: Antiproliferative activity against human PC-3M cells incubated for 24 hrs by MTT assay; assay type: functional, cell-based

Structure (SMILES)	IC50 [1]	also measured
CN(C)c1ccc([Se]c2c(-c3ccccc3)ncc3ccccc23)cc1	> 100 µM	
COc1ccc([Se]c2c(-c3ccc4ccccc4c3)ncc3ccccc23)cc1	> 100 µM	
CC[C@@]1(O)C(=O)OCc2c1cc1n(c2=O)Cc2cc3ccccc3nc2-1 [CAMPTOTHECIN]	2.46 µM	inhibition [2]: Active; inhibition [3]: Active; Activity [4]: 39.1%; Activity [5]: Active; Activity [6]: Active; Activity [7]: Active; inhibition in vivo at 10 mg/kg [8]: 66%; Activity [9]: Toxic
Clc1ccc([Se]c2c(-c3ccccc3)ncc3ccccc23)cc1	82 µM	
c1ccc([Se]c2c(-c3ccccc3)ncc3cc4c(cc23)OCO4)cc1	34.2 µM	
COc1ccc([Se]c2c(-c3ccccc3)ncc3cc(OC)ccc23)cc1	8.58 µM	
CCCCc1ncc2ccccc2c1[Se]c1ccc(OC)cc1	> 100 µM	
COc1ccc([Se]c2c(-c3ccccc3)ncc3ccccc23)cc1	6.39 µM	Activity [10]: inactive; Activity [11]: inactive; Activity [12]: inactive; inhibition [13]: Active; Activity [14]: Active; inhibition [15]: Active; N-cadherin expression decrease (qualitative activity) [2]: Active; inhibition [3]: Active; Activity [4]: 20.8%; Activity [16]: Active; Activity [17]: Active; Activity [18]: Active; Activity [19]: Active; Activity [20]: Active; Activity [5]: Active; Activity [21]: Non-toxic; hemolysis at 2 h, 100 µM [22]: < 1%
c1ccc([Se]c2c(-c3ccsc3)ncc3ccccc23)cc1	> 100 µM	
Clc1ccc(-c2ncc3ccccc3c2[Se]c2ccccc2)cc1	> 100 µM	
Fc1ccccc1[Se]c1c(-c2ccccc2)ncc2ccccc12	> 100 µM	
COc1ccccc1[Se]c1c(-c2ccccc2)ncc2ccccc12	64.2 µM	
Clc1ccccc1[Se]c1c(-c2ccccc2)ncc2ccccc12	> 100 µM	
N#Cc1ccccc1[Se]c1c(-c2ccccc2)ncc2ccccc12	> 100 µM	
COc1ccc([Se]c2c(-c3ccccc3)ncc3cccc(F)c23)cc1	53.2 µM	
COc1ccc([Se]c2c(-c3ccccc3)ncc3ccc(OC)cc23)cc1	5.9 µM	Activity [10]: inactive; Activity [11]: inactive; Activity [12]: inactive; inhibition [13]: Active; Activity [14]: Active; inhibition [15]: Active; N-cadherin expression decrease (qualitative activity) [2]: Active; inhibition [3]: Active; Activity [4]: 31.5%; Activity [16]: Active; Activity [17]: Active; Activity [18]: Active; Activity [19]: Active; Activity [20]: Active; Activity [5]: Active; Activity [21]: Non-toxic; hemolysis at 2 h, 100 µM [22]: < 1%
Fc1cccc([Se]c2c(-c3ccccc3)ncc3ccccc23)c1	> 100 µM	
COc1ccc([Se]c2c(-c3ccccc3)ncc3cc(Br)ccc23)cc1	94.8 µM	
c1ccc([Se]c2c(-c3ccc4ccccc4c3)ncc3ccccc23)cc1	54.8 µM	
COc1ccc2c([Se]c3ccccc3)c(-c3ccccc3)ncc2c1	76.6 µM	
FC(F)(F)c1cccc([Se]c2c(-c3ccccc3)ncc3ccccc23)c1	47.2 µM	
Fc1ccc(-c2ncc3ccccc3c2[Se]c2ccccc2)cc1	> 100 µM	
COc1ccc([Se]c2c(-c3ccccc3)ncc3cc4c(cc23)OCO4)cc1	> 100 µM	

Structure (SMILES)	IC50 [1]	also measured
c1ccc([Se]c2c(-c3ccc(-c4ncc5ccccc5c4[Se]c4ccccc4)cc3)ncc3ccccc23)cc1	> 100 µM	
COc1cc2cnc(-c3ccccc3)c([Se]c3ccccc3)c2cc1OC	42.3 µM	
Clc1cccc([Se]c2c(-c3ccccc3)ncc3ccccc23)c1	56.7 µM	
Cc1ccccc1[Se]c1c(-c2ccccc2)ncc2ccccc12	61.6 µM	
N#Cc1cccc([Se]c2c(-c3ccccc3)ncc3ccccc23)c1	68 µM	
COc1ccc([Se]c2c(-c3ccccc3)ncc3cc(C(F)(F)F)ccc23)cc1	42.6 µM	
c1ccc([Se]c2c(-c3ccccc3)ncc3cccnc23)cc1	42.3 µM	
Cc1ccc2c([Se]c3ccccc3)c(-c3ccccc3)ncc2c1	> 100 µM	
CC(C)(C)c1ccc(-c2ncc3ccccc3c2[Se]c2ccccc2)cc1	40.8 µM	
Brc1ccc([Se]c2c(-c3ccccc3)ncc3ccccc23)cc1	> 100 µM	
Brc1ccc2c([Se]c3ccccc3)c(-c3ccccc3)ncc2c1	86.2 µM	
Brc1c2ccccc2c(-c2ncc3ccccc3c2[Se]c2ccccc2)c2ccccc12	> 100 µM	
c1ccc([Se]c2c(-c3c4ccccc4c(-c4ncc5ccccc5c4[Se]c4ccccc4)c4ccccc34)ncc3ccccc23)cc1	> 100 µM	
COc1ccc([Se]c2c(-c3ccccc3)ncc3cc(F)ccc23)cc1	39 µM	
FC(F)(F)c1ccccc1[Se]c1c(-c2ccccc2)ncc2ccccc12	68 µM	
Fc1ccc2c([Se]c3ccccc3)c(-c3ccccc3)ncc2c1	> 100 µM	
FC(F)(F)c1ccc([Se]c2c(-c3ccccc3)ncc3ccccc23)cc1	53.6 µM	
C[Se]c1c(-c2ccccc2)ncc2ccccc12	> 100 µM	
Cc1ccc([Se]c2c(-c3ccccc3)ncc3ccccc23)cc1	52 µM	
c1ccc([Se]c2c(-c3ccccc3)ncc3ccccc23)cc1	61.6 µM	
c1ccc([Se]c2c(-c3ccc(-c4cc(-c5ccc(-c6ncc7ccccc7c6[Se]c6ccccc6)cc5)cc(-c5ccc(-c6ncc7ccccc7c6[Se]c6ccccc6)cc5)c4)cc3)ncc3ccccc23)cc1	> 100 µM	
N#Cc1ccc([Se]c2c(-c3ccccc3)ncc3ccccc23)cc1	> 100 µM	
Clc1ccc2c([Se]c3ccccc3)c(-c3ccccc3)ncc2c1	99.2 µM	

Structure (SMILES)	IC50 [1]	also measured
c1ccc([Se]c2c(-c3ccccc3)ncc3sccc23)cc1	65.6 µM	
Cc1ccc(-c2ncc3ccccc3c2[Se]c2ccccc2)cc1	> 100 µM	
COc1ccc([Se]c2c(-c3ccccc3)ncc3cc(Cl)ccc23)cc1	93.3 µM	
FC(F)(F)c1ccc2c([Se]c3ccccc3)c(-c3ccccc3)ncc2c1	51.9 µM	
CCCCc1ncc2ccccc2c1[Se]c1ccccc1	> 100 µM	
COc1ccc([Se]c2c(-c3ccsc3)ncc3ccccc23)cc1	44.5 µM	
Fc1ccc([Se]c2c(-c3ccccc3)ncc3ccccc23)cc1	20.3 µM	
Cc1ccc(-c2cc(C(F)(F)F)nn2-c2ccc(S(N)(=O)=O)cc2)cc1 [CELECOXIB]		IC50 [23]: > 20 µM; IC50 [24]: > 20 µM
COc1cccc([Se]c2c(-c3ccccc3)ncc3ccccc23)c1	56.5 µM	
COc1ccc([Se]c2c(-c3ccccc3)ncc3cc(C)ccc23)cc1	16.6 µM	
Brc1ccc(-c2ncc3ccccc3c2[Se]c2ccccc2)cc1	> 100 µM	
COc1ccc(-c2ncc3ccccc3c2[Se]c2ccccc2)cc1	> 100 µM	
COc1ccc([Se]c2c(-c3ccc(Cl)cc3)ncc3ccccc23)cc1	77.3 µM	
CC(C)(C)c1ncc2ccccc2c1[Se]c1ccccc1	> 100 µM	
COc1ccc([Se]c2cc(-c3ncc4ccccc4c3[Se]c3ccc(OC)cc3)cc([Se]c3ccc(OC)cc3)c2N)cc1	> 100 µM	
O=P1(N(CCCl)CCCl)NCCCO1 (configuration not stated) [CYCLOPHOSPHAMIDE ANHYDROUS]	114 µM	
Cc1cccc([Se]c2c(-c3ccccc3)ncc3ccccc23)c1	38 µM	
COc1ccc([Se]c2c(-c3ccccc3)ncc3sccc23)cc1	33.6 µM	
c1ccc([Se]c2c(-c3ccc(-c4ccccc4)cc3)ncc3ccccc23)cc1	> 100 µM	
N#C[Se]Cc1cc(-c2ccccc2)n(-c2ccc(S(N)(=O)=O)cc2)n1		IC50 [23]: 5 µM
COc1ccc([Se]c2c(-c3ccc(Br)cc3)ncc3ccccc23)cc1	> 100 µM	
c1ccc([Se]c2c(C3CC3)ncc3ccccc23)cc1	> 100 µM	
c1ccc([Se]c2c(-c3cc4ccccc4c4ccccc34)ncc3ccccc23)cc1	> 100 µM	
